Measurements from ChEMBL document CHEMBL2163196, “Discovery of small molecules that inhibit melanogenesis via regulation of tyrosinase expression” (Bioorg Med Chem Lett, 2012).
Active and inactive are the calls of the source. The rule behind the calls is not given here.

Experiments:
B16-F10 [1] = assay: Inhibition of alpha-MSH-induced melanogenesis in mouse B16F10 cells after 3 days by spectrophotometric analysis; type: functional, cell-based; details: for IC50: B16-F10, 72 h
[2] = Inhibition of tyrosinase
B16-F10 [3] = assay: Inhibition of alpha-MSH-induced melanogenesis in mouse B16F10 cells at 10 uM after 3 days by spectrophotometric analysis relative to control; type: functional; details: B16-F10, 72 h
B16-F10 [4] = assay: Inhibition of alpha-MSH-induced melanogenesis in mouse B16F10 cells at 1 uM after 3 days by spectrophotometric analysis relative to control; type: functional; details: B16-F10, 72 h
B16-F10 [5] = assay: Cytotoxicity against mouse alpha-MSH-induced B16F10 cells at 0.31 to 20 uM after 3 days by trypan blue staining; type: cell-based; details: b16-f10, 72 h
B16-F10 [6] = assay: Ratio of kojic acid IC50 to compound IC50 for melanogenesis in mouse B16F10 cells; type: functional
B16-F10 [7] = assay: Downregulation of tyrosinase in mouse B16F10 cells assessed as tyrosinase protein expression level at 5 uM after 24 hrs by Western blot analysis relative to actin (reference value: 1.6); type: functional
B16-F10 [8] = assay: Downregulation of tyrosinase in mouse B16F10 cells assessed as tyrosinase protein expression level at 5 uM after 48 hrs by Western blot analysis relative to actin (reference value: 1.1); type: functional

Compound	IC50 (B16-F10 [1])	inhibition [2]	inhibition at 10 µM (B16-F10 [3])	inhibition at 1 µM (B16-F10 [4])	Activity (B16-F10 [5])	Ratio IC50 (B16-F10 [6])	inhibition (B16-F10 [1])	fold change (FC) (B16-F10 [7])	fold change (FC) (B16-F10 [8])
O=c1cc(CO)occ1O [KOJIC ACID]	84500 nM								
O=C(c1noc2c1CCCCC2)N1CCN(c2ccc(Cl)cc2)CC1		inactive	7%						
CCCc1ccc(N2CCN(C(=O)c3noc4c3CCCCC4)CC2)cc1		inactive	56%	21%					
O=C(c1noc2c1CCCCC2)N1CCN(c2ncccn2)CC1		inactive	8%	11%					
O=C(c1noc2c1CCCCC2)N1CCN(c2ccc(F)cc2)CC1		inactive	< 5%						
COc1ccc(N2CCN(C(=O)c3noc4c3CCCCC4)CC2)cc1	670 nM	inactive	92%	42%	Non-toxic	126	Dose-dependent effect		
O=C(c1noc2c1CCCCC2)N1CCN(c2ccc3c(c2)OCCO3)CC1		inactive	< 5%						
CCOc1ccc(N2CCN(C(=O)c3noc4c3CCCCC4)CC2)cc1	990 nM	inactive	90%	47%	Non-toxic	85	Dose-dependent effect	0.9	0.7
CCCc1ccc(N2CCCN(C(=O)c3noc4c3CCCCC4)CC2)cc1		inactive	95%	15%					

Continued, in another order:

IC50 (B16-F10 [1])	inhibition [2]	Compound	inhibition at 10 µM (B16-F10 [3])	inhibition at 1 µM (B16-F10 [4])	Activity (B16-F10 [5])	Ratio IC50 (B16-F10 [6])	inhibition (B16-F10 [1])	fold change (FC) (B16-F10 [7])	fold change (FC) (B16-F10 [8])
	inactive	COc1ccc(N2CCCN(C(=O)c3noc4c3CCCCC4)CC2)cc1	30%						
	inactive	CCCOc1ccc(N2CCN(C(=O)c3noc4c3CCCCC4)CC2)cc1	38%	34%					
1010 nM	inactive	O=C(c1noc2c1CCCCC2)N1CCN(c2ccc(O)cc2)CC1	89%	47%	Non-toxic	85	Dose-dependent effect		
	inactive	COc1cccc(N2CCN(C(=O)c3noc4c3CCCCC4)CC2)c1	< 5%						
	inactive	COc1ccc(CN2CCN(C(=O)c3noc4c3CCCCC4)CC2)cc1	< 5%	< 5%					
	inactive	Cc1ccc(N2CCN(C(=O)c3noc4c3CCCCC4)CC2)cc1	< 5%						
